According to patent publication US20240174690A1, “ANNULATED 2-AMINO-3-CYANO THIOPHENES AND DERIVATIVES FOR THE TREATMENT OF CANCER” (BOEHRINGER INGELHEIM INTERNATIONAL GMBH, priority 2021, published 2024):
Like-named read-outs stand apart in the source and are kept apart here.

Experiments:
[1] = system: LOVO cells; assay: LOVO CTG proliferation assay (120 h) (CRC, G13D); type: cell-based; conditions: Homo sapiens, CTG 120 h
In short: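 IC50 comes from a four-parameter fit of CellTiter-Glo viability, expressed as RLU relative to DMSO wells. Compound exposure lasted 120 h in LOVO cells seeded the day before at 1000 cells/well in DMEM with 10% fetal calf serum.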

[2] = Plasma protein binding assay (PPB), equilibrium dialysis, 10% FCS in PBS; type: in vitro ADME; conditions: bovine, read-out: PPB 10% FCS (% fu)
In short: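 Test compound (1-10 μmol/L) in 10% FCS in PBS was dialysed for 3-5 h at 37° C versus PBS ± dextran across a semipermeable membrane. LC-MS of both compartments after protein precipitation gave Cserum and Cbuffer, from which the unbound fraction fu was derived.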

[3] = system: NCI-H358 cells; assay: NCI-H358 CTG proliferation assay (120 h) (NSCLC, G12C); type: cell-based, human; conditions: Homo sapiens
In short: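 IC50 values derive from four-parameter nonlinear regression of CellTiter-Glo viability (RLU relative to DMSO wells) after 120 h of exposure. Cells were plated in RPMI-1640 + 10% FCS at 2000 per well (assay 1) or 200 per well (assay 2). Untreated cells were measured at compound addition as T0.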

[4] = Metabolic (microsomal) stability assay, human liver microsomes (HLM); type: in vitro ADME; conditions: predicted clearance as percent of liver blood flow, 1 μM
In short: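 LC-MS/MS tracked parent disappearance at 0, 5, 15, 30 and 60 min in NADPH-initiated incubations with 1 mg/mL human microsomal protein and 1 μM compound at 37°C, pH 7.5. First-order fits gave intrinsic clearance, which was scaled up and reported as % QH. NADPH-free controls were also run.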

[5] = system: KRAS G12D-dependent Ba/F3 cells; assay: Ba/F3 proliferation assay, KRAS G12D; type: cell-based; conditions: Mus musculus, BaF3, 72 h, AlamarBlue
In short: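 IL-3-independent Ba/F3 lines carrying retrovirally introduced KRAS G12C, G12D or G12V; puromycin withdrawn ~10 days before assay. Duplicate treatments, AlamarBlue fluorescence readout, curve-fit analysis.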

[6] = assay 1, CTG, read-out: H358 (assay 1) IC50
[7] = assay 2, CTG, read-out: H358 (assay 2) IC50

| SMILES | IC50 [1] [µM] | fraction unbound [2] | IC50 [3, 6] [µM] | IC50 [3, 7] [µM] | HLM QH [4] [%] | IC50 [5] [µM] |
| --- | --- | --- | --- | --- | --- | --- |
| C[C@H](Oc1cc(-c2cccc(C(N)=O)c2)nc(-c2noc3c2CCC[C@@]32CCCc3sc(N)c(C#N)c32)n1)[C@@H]1CCCN1C [II-133] | 0.459 | 0.04 | 0.074 | 0.009 | <24 | 0.248 |
| CO[C@@H]1C[C@@H]([C@H](C)Oc2cc(N3CCN(C)C4(CC4)C3)nc(-c3noc4c3CCC[C@@]43CCCc4sc(N)c(C#N)c43)n2)N(C)C1 [II-152] | 0.65 | 0.08 | – | 0.926 | 58 | 0.068 |
| CO[C@@H]1C[C@@H]([C@H](C)Oc2cc(N3CCN(C)C4(COC4)C3)nc(-c3noc4c3CCC[C@@]43CCCc4sc(N)c(C#N)c43)n2)N(C)C1 [II-153] | 0.283 | 0.14 | – | 2.85 | 58 | 0.126 |
| C[C@H](Oc1cc(-n2cc3c(n2)CNC3)nc(-c2noc3c2CCC[C@@]32CCCc3sc(N)c(C#N)c32)n1)[C@@H]1C[C@@H](F)CN1C [II-154] | 0.904 | 0.1 | – | 0.374 | 76 | 0.082 |
| COc1c(O[C@@H](C)[C@@H]2CCCN2C)nc(-c2noc3c2CCC[C@@]32CCCc3sc(N)c(C#N)c32)nc1-n1ccc(C(N)=O)n1 [II-159] | 0.356 | 0.21 | – | 0.031 | 40 | 0.366 |
| C[C@H](Oc1cc(N2CCNC3(CC3)C2)nc(-c2noc3c2CCC[C@@]32CCCc3sc(N)c(C#N)c32)n1)[C@@H]1C[C@@H](F)CN1C [II-165] | 0.303 | 0.16 | – | 0.166 | 61 | 0.003 |
| CC(C)N1CCCN(c2cc(-c3ccn(C)n3)nc(-c3noc4c3CCC[C@@]43CCCc4sc(N)c(C#N)c43)n2)[C@@H](C)C1 [II-170] | 0.27 | 0.32 | – | 0.623 | 33 | 0.089 |
| C[C@H](Oc1nc(-c2noc3c2CCC[C@@]32CCCc3sc(N)c(C#N)c32)nc(N2CCN(C)C3(CC3)C2)c1Cl)[C@@H]1C[C@@H](F)CN1C [II-176] | 2.68 | 0.01 | – | 1.64 | 63 | 0.112 |
| CC(=O)N1CCN(c2cc(O[C@@H](C)[C@@H]3CCCN3C)nc(-c3noc4c3CCC[C@@]43CCCc4sc(N)c(C#N)c43)n2)CC12CC2 [II-178] | 0.624 | 0.46 | – | 0.129 | <24 | 0.085 |
| CO[C@H]1CCN(C)[C@@H]1[C@H](C)Oc1cc(N2CCNC3(CC3)C2)nc(-c2noc3c2CCC[C@@]32CCCc3sc(N)c(C#N)c32)n1 [II-184] | 0.325 | 0.1 | – | 0.095 | 60 | 0.001 |
| CO[C@H]1CCN(C)[C@@H]1[C@H](C)Oc1cc(N2CCN(C)C3(CC3)C2)nc(-c2noc3c2CCC[C@@]32CCCc3sc(N)c(C#N)c32)n1 [II-186] | 0.357 | 0.08 | – | 0.273 | 49 | 0.012 |
| CO[C@@H]1C[C@@H]([C@H](C)Oc2cc(N3CCNC4(CC4)C3)nc(-c3noc4c3CCC[C@@]43CCCc4sc(N)c(C#N)c43)n2)N(C)C1 [II-187] | 0.429 | 0.14 | – | 0.135 | 46 | 0.003 |

The next molecules have a lower IC50 [1] than those just listed; values first:

| IC50 [1] [µM] | fraction unbound [2] | IC50 [3, 6] [µM] | IC50 [3, 7] [µM] | HLM QH [4] [%] | IC50 [5] [µM] | SMILES |
| --- | --- | --- | --- | --- | --- | --- |
| 0.246 | 0.54 | – | 0.04 | <24 | 0.066 | C[C@H](Oc1cc(C2=CCNCC2)nc(-c2noc3c2CCC[C@@]32CCCc3sc(N)c(C#N)c32)n1)[C@@H]1CCCN1C [II-164] |
| 0.226 | 0.04 | – | 0.23 | 65 | 0.016 | C[C@H](Oc1nc(-c2noc3c2CCC[C@@]32CCCc3sc(N)c(C#N)c32)nc(N2CCNC3(CC3)C2)c1Cl)[C@@H]1C[C@@H](F)CN1C [II-156] |
| 0.225 | 0.01 | – | 0.277 | <24 | 0.145 | C[C@H](Oc1cc(-n2nccc2-c2ccncc2)nc(-c2noc3c2CCC[C@@]32CCCc3sc(N)c(C#N)c32)n1)[C@@H]1CCCN1C [II-131] |
| 0.19 | 0.03 | 0.025 | 0.028 | <24 | 0.045 | C[C@H](Oc1cc(-n2ccc(-c3cnccn3)n2)nc(-c2noc3c2CCC[C@@]32CCCc3sc(N)c(C#N)c32)n1)[C@@H]1CCCN1C [II-130] |
| 0.139 | 0.17 | – | 0.112 | 39 | 0.016 | C[C@H](Oc1cc(-n2cc3c(n2)CN(C)C3)nc(-c2noc3c2CCC[C@@]32CCCc3sc(N)c(C#N)c32)n1)[C@@H]1CCCN1C [II-174] |
| 0.136 | 0.03 | – | 0.151 | 69 | 0.017 | C[C@H](Oc1nc(-c2noc3c2CCC[C@@]32CCCc3sc(N)c(C#N)c32)nc(N2C[C@H](C)NC3(CC3)C2)c1F)[C@@H]1C[C@@H](F)CN1C [II-157] |
| 0.12 | 0.31 | – | 0.324 | 36 | 0.099 | C[C@H](Oc1cc(-n2cc(C(=O)N(C)C)nn2)nc(-c2noc3c2CCC[C@@]32CCCc3sc(N)c(C#N)c32)n1)[C@@H]1CCCN1C [II-132] |
| 0.107 | 0.04 | – | 0.077 | 70 | 0.006 | C[C@H](Oc1nc(-c2noc3c2CCC[C@@]32CCCc3sc(N)c(C#N)c32)nc(N2CCNC3(CC3)C2)c1F)[C@@H]1C[C@@H](F)CN1C [II-155] |
| 0.096 | 0.18 | 0.025 | – | 57 | 0.003 | C[C@H](Oc1cc(N2CCOC2=O)nc(-c2noc3c2CCC[C@@]32CCCc3sc(N)c(C#N)c32)n1)[C@@H]1CCCN1C [II-143] |
| 0.084 | 0.04 | – | 0.058 | 73 | 0.024 | C[C@@H]1CN(c2nc(-c3noc4c3CCC[C@@]43CCCc4sc(N)c(C#N)c43)nc(O[C@@H](C)[C@@H]3C[C@@H](F)CN3C)c2F)CC2(CC2)N1 [II-158] |
| 0.081 | 0.13 | – | 0.115 | 64 | 0.003 | C[C@H](Oc1cc(N2CCNC3(COC3)C2)nc(-c2noc3c2CCC[C@@]32CCCc3sc(N)c(C#N)c32)n1)[C@@H]1C[C@@H](F)CN1C [II-150] |
| 0.039 | 0.16 | – | 0.019 | <24 | 0.028 | C[C@H](Oc1cc(-n2ccc(C3(O)COC3)n2)nc(-c2noc3c2CCC[C@@]32CCCc3sc(N)c(C#N)c32)n1)[C@@H]1CCCN1C [II-189] |
| 0.038 | 0.13 | – | 0.003 | 35 | 0.016 | CC(C)NC(=O)Cc1ccn(-c2cc(O[C@@H](C)[C@@H]3CCCN3C)nc(-c3noc4c3CCC[C@@]43CCCc4sc(N)c(C#N)c43)n2)n1 [II-182] |
